Measured values: patent US3979508A, “Compositions and methods therewith for penicillin hypersensitivity detection” (Kremers-Urban Company, priority 1975, dated 1976)

Test system: penicillin hypersensitivity (patients)
Test: Comparison of skin tests with penicilloyl-poly-L-lysine and penicillin G (Table III)
Format: in vivo, human
Details: 1163 tested
Description: One of the uses for the conjugates of this invention is in skin testing for penicillin hypersensitivity. The conjugated compositions are prepared for skin testing by first dissolving the composition in buffered isotonic solutions, having a pH in the range from 7 to 8. For example, the conjugates prepared above may be diluted with aqueous solutions 0.15 M NaCl in 0.01 M phosphate, pH 7.6. In addition, other physiological salt solutions may be used.
Intradermal injections may be made of the foregoing solutions with a 26 guage needle, the volume injected may be generally about 0.01 to 0.03 cc. Alternatively, the conjugate may be applied by the scratch test technique. The development of a wheal at the injection site after about 20 minutes indicates a positive reaction, and penicillin hypersensitivity.
Penicillin hypersensitivity tests carried out with the conjugate compositions of this invention reflect the numerous advantages of penicillin hypersensitivity determinations made with such compositions. […] In Table II the distribution of skin reactions is shown by history of penicillin therapy and hypersensitivity. […] (See column 2, for example, showing the percentages of patients tested who had […] skin test.)

Substance: penicilloyl-poly-L-lysine [PPL]
- POSITIVE SKIN TESTS %: 17.9%
- Positive Skin Tests, Number of Patients: 209
